Data from patent US20240246979A1, “cGAS INHIBITORS” (Eli Lilly and Company, priority 2022, published 2024).

Experiments:
cGAS [1] = target: T1, cGAS (Homo sapiens, UniProt Q8N884); assay: In vitro inhibition assay of cGAS activity (cGAMP production, RapidFire mass spectrometry); format: biochemical; design: Insert cDNA encoding full-length of human cGAS; His6; made in house; host or cells: E. coli BL21(DE3); conditions: 10 nM recombinant human cGAS, 60 nM 75-bp dsDNA, 50 μM ATP, 50 μM GTP, 3 hrs
T1 sequence (Q8N884 whole entry): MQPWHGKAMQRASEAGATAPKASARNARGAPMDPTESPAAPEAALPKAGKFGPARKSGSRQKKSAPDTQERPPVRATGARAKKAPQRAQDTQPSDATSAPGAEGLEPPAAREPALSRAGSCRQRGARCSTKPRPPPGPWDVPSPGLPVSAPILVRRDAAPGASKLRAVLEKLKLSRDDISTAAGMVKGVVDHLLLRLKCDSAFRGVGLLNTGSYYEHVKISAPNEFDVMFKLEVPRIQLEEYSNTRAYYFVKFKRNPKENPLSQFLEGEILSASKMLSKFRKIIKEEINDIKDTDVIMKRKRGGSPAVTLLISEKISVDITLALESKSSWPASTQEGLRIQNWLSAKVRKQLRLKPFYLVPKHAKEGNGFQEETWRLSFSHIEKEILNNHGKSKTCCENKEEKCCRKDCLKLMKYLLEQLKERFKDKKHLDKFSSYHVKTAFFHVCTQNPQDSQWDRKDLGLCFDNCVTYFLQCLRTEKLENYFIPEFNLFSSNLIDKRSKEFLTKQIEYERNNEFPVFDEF
Outline: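 Reactions in 10 mM Tris-Cl pH 7.5, 5 mM MgCl2, 0.01% Triton X-100 contained serially diluted compound, 10 nM recombinant cGAS, dsDNA activator and 50 μM each of ATP and GTP, run 3 hrs at ambient temperature. After formic acid quench, cGAMP output was measured by mass spectrometry and percent inhibition versus log concentration was fitted for IC50.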

cGAS [2] = target: T1, cGAS; assay: Cellular assay to measure cGAS activity (IFNb AlphaLISA in THP1 cells stimulated by RDG-Adenovirus-GFP); format: cell-based; design: host or cells: THP1 cells differentiated with PMA and stimulated with RDG-Adenovirus-GFP; conditions: PMA-differentiated THP1 cells, RDG-Adenovirus-GFP at 1000 MOI; inhibition of IFNb production as marker for cGAS activity
Outline: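 The readout is secreted IFNb measured by AlphaLISA after overnight compound exposure. THP1 cells, differentiated with PMA for 24 h and rested overnight, were infected with RDG-Adenovirus-GFP (1000 MOI, 4 h) before compounds were added; IC50 came from a 4-parameter logistic fit of inhibition against log concentration.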

| IC50 (cGAS [1]) [nM] | IC50 (cGAS [2]) [nM] | SMILES |
| --- | --- | --- |
| 37.5 | 4150 | CC1C(=O)NCCc2[nH]c3c(Cl)c(Cl)cc(NC4CCOC4)c3c21 (stereo in doubt) [Example 66, 7,8-Dichloro-1-methyl-10-(((R)-tetrahydrofuran-3-yl)amino)-3,4,5,6-tetrahydroazepino[4,5-b]indol-2(1H)-one] |
| 17.7 | 655 | C[C@@H]1CNC(=O)[C@H](C)c2c1[nH]c1c(Cl)c(Cl)cc(NCCO)c21 (single isomer, unassigned) [Example 155] |
| 45.9 | 4580 | O=C1Cc2c([nH]c3c(Cl)c(Cl)cc(NCCCO)c23)CCN1 [Example 22, 7,8-Dichloro-10-((3-hydroxypropyl)amino)-3,4,5,6-tetrahydroazepino[4,5-b]indol-2(1H)-one] |
| 17.3 | 259 | C[C@@H]1C(=O)NCCc2c1c1c(NC(=O)CO)cc(Cl)c(Cl)c1n2C (single isomer, unassigned) [Example 92] |
| 17.5 | 787 | C[C@H]1C(=O)NCC(C)(C)c2c1c1c(NC(=O)CO)cc(Cl)c(Cl)c1n2C (single isomer, unassigned) [Example 134, (R)—N-(7,8-Dichloro-1,5,5,6-tetramethyl-2-oxo-1,2,3,4,5,6-hexahydroazepino[4,5-b]indol-10-yl)-2-hydroxyacetamide or (S)—N-(7,8-Dichloro-1,5,5,6-tetramethyl-2-oxo-1,2,3,4,5,6-hexahydroazepino[4,5-b]indol-10-yl)-2-hydroxyacetamide] |
| 51.9 | 3470 | CC1C(=O)NCCc2[nH]c3c(Cl)c(Cl)cc(OC4CCOC4)c3c21 (mixture of isomers) [Example 86, 7,8-Dichloro-1-methyl-10-((tetrahydrofuran-3-yl)oxy)-3,4,5,6-tetrahydroazepino[4,5-b]indol-2(1H)-one] |
| 14.2 | 591 | COCCOc1cc(Cl)c(Cl)c2[nH]c3c(c12)C(C)C(=O)NCC3 (centres unmarked) [Example 79, 7,8-Dichloro-10-(2-methoxyethoxy)-1-methyl-3,4,5,6-tetrahydroazepino[4,5-b]indol-2(1H)-one] |
| 119 | 3730 | CCNc1cc(Cl)c(Cl)c2[nH]c3c(c12)CC(=O)NCC3 [Example 30, 7,8-Dichloro-10-(ethylamino)-3,4,5,6-tetrahydroazepino[4,5-b]indol-2(1H)-one] |
| 1640 | > 10000 | C[C@@H](O)CNc1cc(Cl)c(Cl)c2c1c1c(n2C)CCNC(=O)[C@@H]1C (single isomer, unassigned) [Example 99] |
| 38.9 | 7110 | COC(=O)CC1CNC(=O)Cc2c1[nH]c1c(Cl)c(Cl)cc(CC#N)c21 (centres unmarked) [Example 176, Methyl 2-(7,8-dichloro-10-(cyanomethyl)-2-oxo-1,2,3,4,5,6-hexahydroazepino[4,5-b]indol-5-yl)acetate] |
| 10.8 | 311 | C[C@@H]1C(=O)NCCc2[nH]c3c(Cl)c(Cl)cc(OCc4cocn4)c3c21 (single isomer, unassigned) [Example 178, (S)-7,8-Dichloro-1-methyl-10-(oxazol-4-ylmethoxy)-3,4,5,6-tetrahydroazepino[4,5-b]indol-2(1H)-one or (R)-7,8-dichloro-1-methyl-10-(oxazol-4-ylmethoxy)-3,4,5,6-tetrahydroazepino[4,5-b]indol-2(1H)-one] |
| 20.7 | 1190 | CC1C(=O)NCCc2c1c1c(NCc3cnc[nH]3)cc(Cl)c(Cl)c1n2C (centres unmarked) [Example 91, 10-(((1H-Imidazol-5-yl)methyl)amino)-7,8-dichloro-1,6-dimethyl-3,4,5,6-tetrahydroazepino[4,5-b]indol-2(1H)-one] |
| 8.12 | 280 | COCCOc1cc(Cl)c(Cl)c2[nH]c3c(c12)[C@H](C)C(=O)NCC3 (single isomer, unassigned) [Example 80] |
| 7580 | ≥ 10000 | C[C@H](O)C(=O)Nc1cc(Cl)c(Cl)c2c1c1c(n2C)CCNC(=O)[C@H]1C (single isomer, unassigned) [Example 95] |
| 54.4 | 892 | COCC(=O)Nc1cc(Cl)c(Cl)c2[nH]c3c(c12)C(C)C(=O)NCC3 (centres unmarked) [Example 39, N-(7,8-Dichloro-1-methyl-2-oxo-1,2,3,4,5,6-hexahydroazepino[4,5-b]indol-10-yl)-2-methoxyacetamide] |
| > 39800 | > 10000 | C[C@H](O)C(=O)Nc1cc(Cl)c(Cl)c2[nH]c3c(c12)[C@@H](C)C(=O)NCC3(C)C (single isomer, unassigned) [Example 181, (S)—N—((R)-7,8-Dichloro-1,5,5-trimethyl-2-oxo-1,2,3,4,5,6-hexahydroazepino[4,5-b]indol-10-yl)-2-hydroxypropanamide or (S)—N—((S)-7,8-dichloro-1,5,5-trimethyl-2-oxo-1,2,3,4,5,6-hexahydroazepino[4,5-b]indol-10-yl)-2-hydroxypropanamide] |
| 3560 | 6230 | C[C@@H](O)CNc1cc(Cl)c(Cl)c2[nH]c3c(c12)[C@@H](C)C(=O)NCC3 (single isomer, unassigned) [Example 56] |
| 14.9 | 498 | C[C@H](O)C(=O)Nc1cc(Cl)c(Cl)c2[nH]c3c(c12)[C@@H](C)C(=O)NCC3 (single isomer, unassigned) [Example 43] |

Further lines, the molecule ahead of its results:

| SMILES | IC50 (cGAS [1]) [nM] | IC50 (cGAS [2]) [nM] |
| --- | --- | --- |
| O=C1Cc2c([nH]c3c(Cl)c(Cl)cc(-c4nc(CO)no4)c23)CCN1 [Example 26, 7,8-Dichloro-10-(3-(hydroxymethyl)-1,2,4-oxadiazol-5-yl)-3,4,5,6-tetrahydroazepino[4,5-b]indol-2(1H)-one] | 133 | > 10000 |
| Cn1ncc(-c2cc(Cl)c(Cl)c3[nH]c4c(c23)CC(=O)NCC4CCC(F)F)n1 (racemic) [Example 177, 7,8-Dichloro-5-(3,3-difluoropropyl)-10-(2-methyl-2H-1,2,3-triazol-4-yl)-3,4,5,6-tetrahydroazepino[4,5-b]indol-2(1H)-one] | 23.1 | 841 |
| O=C1Cc2c([nH]c3c(Cl)c(Cl)cc(-c4nnc[nH]4)c23)CCN1 [Example 29, 7,8-Dichloro-10-(4H-1,2,4-triazol-3-yl)-3,4,5,6-tetrahydroazepino[4,5-b]indol-2(1H)-one] | 122 | > 10000 |
| COCC(=O)Nc1cc(Cl)c(Cl)c2[nH]c3c(c12)[C@@H](C)C(=O)NCC3 (single isomer, unassigned) [Example 41] | 7170 | > 10000 |
| Cn1c2c(c3c(CC#N)cc(Cl)c(Cl)c31)CC(=O)NC[C@H]2CC(C)(C)O (single isomer, unassigned) [Example 129] | 1550 | 1320 |
| C[C@H]1C(=O)NCCc2[nH]c3c(Cl)c(Cl)cc(CC#N)c3c21 (single isomer, unassigned) [Example 89] | 20 | 1130 |
| Cn1ncc(-c2cc(Cl)c(Cl)c3[nH]c4c(c23)CC(=O)NC[C@H]4CC(C)(F)F)n1 (single isomer, unassigned) [Example 137] | 683 | > 10000 |
| NC(=O)COc1cc(Cl)c(Cl)c2[nH]c3c(c12)CC(=O)NCC3 [Example 20, 2-((7,8-Dichloro-2-oxo-1,2,3,4,5,6-hexahydroazepino[4,5-b]indol-10-yl)oxy)acetamide] | 132 | > 10000 |
| Cn1c2c(c3c(CC#N)cc(Cl)c(Cl)c31)CC(=O)NC[C@H]2CCO (single isomer, unassigned) [Example 122] | 934 | 2940 |
| CN(C)C(=O)CC1CNC(=O)Cc2c1[nH]c1c(Cl)c(Cl)cc(-c3cnn(C)n3)c21 (centres unmarked) [Example 7, 2-(7,8-Dichloro-10-(2-methyl-2H-1,2,3-triazol-4-yl)-2-oxo-1,2,3,4,5,6-hexahydroazepino[4,5-b]indol-5-yl)-N,N-dimethylacetamide] | 28.1 | 661 |
| Cn1c2c(c3c(OCC#N)cc(Cl)c(Cl)c31)CC(=O)NCC2CCO (centres unmarked) [Example 124, 2-((7,8-Dichloro-5-(2-hydroxyethyl)-6-methyl-2-oxo-1,2,3,4,5,6-hexahydroazepino[4,5-b]indol-10-yl)oxy)acetonitrile] | 32.3 | 468 |
| C[C@H]1C(=O)NCCc2[nH]c3c(Cl)c(Cl)cc(-c4cnn(C)n4)c3c21 (single isomer, unassigned) [Example 37] | 30.4 | 802 |
| CC[C@H]1C(=O)NCCc2[nH]c3c(Cl)c(Cl)cc(OCC#N)c3c21 (single isomer, unassigned) [Example 35] | 43.8 | 3690 |
| Cn1c2c(c3c(CC#N)cc(Cl)c(Cl)c31)CC(=O)NC[C@H]2CCO (single isomer, unassigned) [Example 123] | 14.1 | 181 |
| Nc1cncc(-c2cc(Cl)c(Cl)c3[nH]c4c(c23)CC(=O)NCC4)n1 [Example 34, 10-(6-Aminopyrazin-2-yl)-7,8-dichloro-3,4,5,6-tetrahydroazepino[4,5-b]indol-2(1H)-one] | 39.5 | 1730 |
| Cc1noc(-c2cc(Cl)c(Cl)c3[nH]c4c(c23)CC(=O)NCC4)n1 [Example 25, 7,8-Dichloro-10-(3-methyl-1,2,4-oxadiazol-5-yl)-3,4,5,6-tetrahydroazepino[4,5-b]indol-2(1H)-one] | 27.1 | > 10000 |
